The values that follow come from publication PMC4330465 (Journal of Computer-Aided Molecular Design, 2014).

Counter-ions that a name gives are not always drawn. Like-named read-outs stand apart in the source and are kept apart here.

Experiment [1] has as its target T1, Recombinant Homo sapiens AChE (Homo sapiens, UniProt P22303).
T1 construct: made in house
Description: biochemical. Type of experiment: biochemical. The protocol: The training set of 18 compounds was experimentally evaluated for their ability to inhibit the enzymatic activity of AChE (Table 1 and Online Resource 1 for experimental details).
Reco mbinant Homo sapiens AChE was expressed according to previously described methods [ 6,7]. The enzymatic activit y wa s measured usi ng t he Ell ma n assa y [ 8] adapted to a 96-well for mat. The final assay volume was 200 µ L a nd all measurements were performed in 0.2 mM 5,5’-D ithiobis(2-nitrobenzoic acid) and 1 mM acethylthioc holine iodide in 0.1 M phosphate buffer pH 8.0. All measurements were perfor med in triplicates and the data was fitted to a (log)i nhibit or vs. response four parameters equation using GraphPad Prism (5.0). T he obtained IC50-values were recalculated to pIC50 according to pIC50=-log(IC50) in molar (M) concentration.

The target in experiment [2] is T1, Recombinant Homo sapiens AChE. As to conditions: test set Set3 (Table S15); cited from earlier work.
[3] abbreviates: training set, triplicates, pH 8.0.
Setting [4] is: test sets Set1 and Set2 (Table S15), synthesized and biologically evaluated here.

T1 sequence (P22303 32-614): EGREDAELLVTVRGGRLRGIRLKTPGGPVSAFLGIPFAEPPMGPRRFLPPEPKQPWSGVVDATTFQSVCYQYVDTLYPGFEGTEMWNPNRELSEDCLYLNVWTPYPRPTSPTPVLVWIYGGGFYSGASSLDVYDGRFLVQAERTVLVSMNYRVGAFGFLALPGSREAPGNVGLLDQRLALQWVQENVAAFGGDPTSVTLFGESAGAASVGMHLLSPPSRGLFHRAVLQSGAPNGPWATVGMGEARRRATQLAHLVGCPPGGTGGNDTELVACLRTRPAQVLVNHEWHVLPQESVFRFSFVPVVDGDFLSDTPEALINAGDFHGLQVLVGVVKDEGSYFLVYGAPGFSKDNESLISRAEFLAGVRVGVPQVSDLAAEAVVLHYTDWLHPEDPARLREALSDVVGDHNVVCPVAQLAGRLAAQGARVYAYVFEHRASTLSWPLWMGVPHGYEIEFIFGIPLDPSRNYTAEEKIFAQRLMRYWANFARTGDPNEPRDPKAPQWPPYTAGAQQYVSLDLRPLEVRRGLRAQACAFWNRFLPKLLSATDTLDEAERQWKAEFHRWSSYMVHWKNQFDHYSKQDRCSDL

`CCN(CC)CCNS(=O)(=O)Cc1ccc(Cl)cc1` [compound 1]: the half-inhibitory concentration (IC50) in experiment [1] (setting [3]) was found to be 13 µM.
Still for that read-out and setting: the value for `O=S(=O)(Cc1ccc(Cl)cc1)NCCCN1CCCCC1` [compound 2] was 445 µM; that for `O=C(Cc1ccc(Cl)cc1)NCCCN1CCOCC1` [compound 3] was over 1000 µM.
Same read-out and setting: under `Cc1ccc(S(=O)(=O)NCCN(C)C)cc1[N+](=O)[O-]` [compound 4] stands 69.5 µM.
The same measure, in the same setting: the value for `Cc1ccc(S(=O)(=O)NCCCN2CCCCC2)cc1[N+](=O)[O-]` [compound 5] was 101 µM.
In the case of `CCN(CC)CCCNC(=O)c1ccc(C)c([N+](=O)[O-])c1` [compound 6], the concentration for half-maximal inhibition (IC50) in experiment [1] (setting [3]) was 12.8 µM.
On to `COc1ccc(N2Cc3ccccc3C2=O)cc1S(=O)(=O)NCCN1CCOCC1` [compound 7], for which the IC50 in experiment [1] (setting [3]) came out at 4250 µM.
With `COc1ccc(N2Cc3ccccc3C2=O)cc1S(=O)(=O)NCCCN(C)C` [compound 8], the 50% inhibitory concentration (IC50) in experiment [1] (setting [3]) was 12 µM.
On to `CN(C)CCCNC(=O)c1sc2ccccc2c1Cl` [compound 9, 3-Chloro-benzo[b]thiophene-2-N-(3-dimethylamino-propyl)-carboxamide hydrochlor ide], for which the concentration for half-maximal inhibition (IC50) in experiment [1] (setting [3]) turned out to be 67.7 µM.
Take `O=C(Cc1ccc(C(F)(F)F)cc1)NCCN1CCCCC1` [compound 10, N-[2-(Piperidin-1-yl)-ethyl] -2-(4-trifluoromethyl-phenyl) -acetamide]: in experiment [1] (setting [3]), the IC50 came to 323 µM.
Turning to `O=C(NCCN1CCOCC1)c1ccc(-c2ccc(Cl)cc2)o1` [compound 11, 5-(4-Chlorophenyl)-N-(2-morpholinoethyl)furan-2-carboxamide], the IC50 in experiment [1] (setting [3]) turned out to be 2430 µM.
As to `CCN(CC)CCCNC(=O)c1ccc(-c2ccc(Cl)cc2)o1` [compound 12, 5-(4-Chloro-phenyl)-furan-2-N-[3-(diethylamino)-propyl]-carboxamide hydrochloride], in experiment [1] (setting [3]), the half-inhibitory concentration (IC50) was 78 µM.
Turning to `O=C(Cc1ccc(Cl)cc1)NCC[n+]1ccccc1` [compound 13, 1-(2-[2-(4 -Chloro-phenyl)-acetylamino]-ethyl)-pyridinium bromide], in experiment [1] (setting [3]), the 50% inhibitory concentration (IC50) came out at 25 µM.
Still for that read-out and setting: the value for `O=C(NCCC[n+]1ccccc1)c1sc2ccccc2c1Cl` [compound 14, 1-(3-[(3-Chloro-benzo[b]thiophen-2-carbonyl)-amino] -propyl)-pyridinium chloride] was 6.6 µM; that for `O=S(=O)(Cc1ccc(C(F)(F)F)cc1)NCCC[n+]1ccccc1` [compound 15] was 22.2 µM; that for `O=C(NCCN1CCNCC1)c1sc2ccccc2c1Cl` [compound 16] was 109 µM.
The same measure, in the same setting: the value for `O=S(=O)(Cc1ccc(C(F)(F)F)cc1)NCCCN1CCNCC1` [compound 17] was 4200 µM; that for `O=C(NCCCN1CCNCC1)c1ccc(-c2ccc(Cl)cc2)o1` [compound 18] was 136 µM.
Consider `Cc1ccc(C(=O)NCCC[n+]2ccccc2)cc1[N+](=O)[O-]` [compound 27], for which the IC50 in experiment [1] (setting [4]) stood at 4.9 µM.
Same read-out and setting: under `Cc1ccc(C(=O)NCC[n+]2ccccc2)cc1[N+](=O)[O-]` [compound 28] stands 10 µM; under `Cc1ccc(C(=O)NCCCN(C)C)cc1[N+](=O)[O-]` [compound 29], 19 µM; under `O=[N+]([O-])c1ccccc1S(=O)(=O)NCC[n+]1ccsc1` [compound 30], 12 µM.
With `O=C(NCC[n+]1ccsc1)c1cc2cc([N+](=O)[O-])ccc2s1` [compound 31], the IC50 in experiment [1] (setting [4]) came out at 2.6 µM.
On to `O=C(COc1ccc(Cl)cc1)Nc1ccc(CN2CCCCC2)cc1` [compound 37], for which the IC50 in experiment [1] (setting [4]) was 0.6 µM.
For `Cc1cc(C)c(OCC(=O)Nc2ccc(CN3CCCCC3)cc2)c(Cl)c1` [compound 38], the concentration for half-maximal inhibition (IC50) in experiment [1] (setting [4]) is 1.3 µM.
Take `O=C(COc1ccccc1)Nc1ccc(CN2CCCCC2)cc1` [compound 39]: the IC50 in experiment [1] (setting [4]) came to 1.3 µM.
As for `O=C(COc1ccccc1Cl)Nc1ccc(CN2CCCCC2)cc1` [compound 40], the IC50 in experiment [1] (setting [4]) came to 0.6 µM.
Take `CCN(CC)Cc1ccc(NC(=O)COc2cc(C)ccc2C)cc1` [compound 41]: the IC50 in experiment [1] (setting [4]) turned out to be 8.1 µM.
Same read-out and setting: the value for `O=C(CCc1ccc(Cl)cc1Cl)Nc1ccc(CN2CCCCC2)cc1` [compound 42] was 0.7 µM.
As for `CCN(CC)CCNS(=O)(=O)c1cccc(OC)c1` [compound 60], in experiment [2], the IC50 is 10 µM.
